According to patent US8188111B2, “Amide and carbamate derivatives of alkyl substituted N-[4-(4-amino-1H-imidazo[4,5-c]quinolin-1-yl)butyI]methanesulfonamides and methods” (3M Innovative Properties Company, priority 2005, dated 2012):

melting point [°C]	SMILES
90 to 91	CCc1nc2c(NC(C)=O)nc3ccccc3c2n1CCCCNS(C)(=O)=O [Example 1, N-(2-Ethyl-1-{4-[(methylsulfonyl)amino]butyl}-1H-imidazo[4,5-c]quinolin-4-yl)acetamide]
185 to 187	CCOC(=O)Nc1nc2ccccc2c2c1nc(CC)n2CCCCNS(C)(=O)=O [Example 3, Ethyl 2-Ethyl-1-{4-[(methylsulfonyl)amino]butyl}-1H-imidazo[4,5-c]quinolin-4-ylcarbamate]
122 to 124	CCc1nc2c(NC(=O)C(C)C)nc3ccccc3c2n1CCCCNS(C)(=O)=O [Example 4, N-(2-Ethyl-1-{4-[(methylsulfonyl)amino]butyl}-1H-imidazo[4,5-c]quinolin-4-yl)-2-methylpropanamide]
220 to 221	CCc1nc2c(NC(=O)C(C)(C)C)nc3ccccc3c2n1CCCCNS(C)(=O)=O [Example 5, N-(2-Ethyl-1-{4-[(methylsulfonyl)amino]butyl}-1H-imidazo[4,5-c]quinolin-4-yl)-2,2-dimethylpropanamide]

The remaining lines, values behind:

SMILES	melting point [°C]
CCc1nc2c(NC(=O)c3ccccc3)nc3ccccc3c2n1CCCCNS(C)(=O)=O [Example 2, N-(2-Ethyl-1-{4-[(methylsulfonyl)amino]butyl}-1H-imidazo[4,5-c]quinolin-4-yl)benzamide]	249 to 250
CCCOC(=O)Nc1nc2ccccc2c2c1nc(CC)n2CCCCNS(C)(=O)=O [Example 6, Propyl 2-Ethyl-1-{4-[(methylsulfonyl)amino]butyl}-1H-imidazo[4,5-c]quinolin-4-ylcarbamate]	155 to 157
CCCCOC(=O)Nc1nc2ccccc2c2c1nc(CC)n2CCCCNS(C)(=O)=O [Example 7, Butyl 2-Ethyl-1-{4-[(methylsulfonyl)amino]butyl}-1H-imidazo[4,5-c]quinolin-4-ylcarbamate]	164 to 166
